From patent US20250221988A1 (Cullgen (Shanghai), Inc., priority 2022, published 2025)
Where two headings read alike, the source gives them in different places.

Assays:
Assay type in all cases: cell-based
MOLM-13 cells = test: Cell viability assay (CellTiter-Glo) in MOLM-13 cells
GSPT1 = GSPT1 (Homo sapiens, UniProt P15170+Q96SW2); test: Immunoblotting of GSPT1 in MOLM-13 cells; design: endogenous in cells; host or cells: MOLM-13; conditions: indicated concentrations, 16 hours
Protocol: Cell Culture: RS4;11, MV4;11, MOLM-13 and other cells were cultured at 37° C. with 5% CO2 in RPMI 1640 or DMEM Medium supplemented with 10% fetal bovine serum. Cells were authenticated using the short tandem repeat (STR) assays. Mycoplasma test results were negative.
Antibodies and reagents: Rabbit anti-FLT3 antibody (3462S) was purchased from Cell Signaling Technology. Rabbit anti-GSPT1 antibody (ab126090) was purchased from Abeam. HRP-conjugated anti-α-tubulin antibody was produced in house. Media and other cell culture reagents were purchased from Thermo Fisher. The CellTiter-Glo Luminescent Assay kit was purchased from Promega.
Immunoblotting: Cultured cells were washed with cold PBS once and lysed in cold RIPA buffer supplemented with protease inhibitors and phosphatase inhibitors (Beyotime Biotechnology). The solutions were then incubated at 4° C. for 30 minutes with gentle agitation to fully lyse cells. Cell lysates were centrifuged at 13,000 rpm for 10 minutes at 4° C. and pellets were discarded. Total protein concentrations in the lysates were determined by BCA assays (Beyotime Biotechnology). Cell lysates were mixed with Laemmli loading buffer to 1× and heated at 99° C. for 5 min. Proteins were resolved on SDS-PAGE and visualized by chemiluminescence. Images were taken by a ChemiDoc MP Imaging system (Bio-Rad). Protein bands were quantitated using the accompanied software provided by Bio-Rad.

MV4;11 cells = test: Cell viability assay (CellTiter-Glo) in MV4;11 cells; conditions: read-out: MV4
Procedure, shortened: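 5000 cells/well in RPMI 1640 or DMEM with 10% FBS, treated with 8- or 12-point 3-fold compound dilutions, with or without gilteritinib (10 nM for MV4;11, 20 nM for MOLM-13). Viability by CellTiter-Glo after three days; IC50 by nonlinear least-squares regression.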

[1] = Homo sapiens, 72 h, MOLM-13 cells, compound alone, three days, read-out: MOLM-13 IC50
[2] = MOLM-13 cells, with gilteritinib, three days, read-out: MOLM-13 IC50 (nM) + 10 nM Gil
[3] = Homo sapiens, MV4-11, 72 h, MV4;11 cells, compound alone, three days, 11 IC50
[4] = MV4;11 cells, with 10 nM gilteritinib, three days, 11 IC50 (nM) + 10 nM Gil

Chain of GSPT1 (P15170 whole entry): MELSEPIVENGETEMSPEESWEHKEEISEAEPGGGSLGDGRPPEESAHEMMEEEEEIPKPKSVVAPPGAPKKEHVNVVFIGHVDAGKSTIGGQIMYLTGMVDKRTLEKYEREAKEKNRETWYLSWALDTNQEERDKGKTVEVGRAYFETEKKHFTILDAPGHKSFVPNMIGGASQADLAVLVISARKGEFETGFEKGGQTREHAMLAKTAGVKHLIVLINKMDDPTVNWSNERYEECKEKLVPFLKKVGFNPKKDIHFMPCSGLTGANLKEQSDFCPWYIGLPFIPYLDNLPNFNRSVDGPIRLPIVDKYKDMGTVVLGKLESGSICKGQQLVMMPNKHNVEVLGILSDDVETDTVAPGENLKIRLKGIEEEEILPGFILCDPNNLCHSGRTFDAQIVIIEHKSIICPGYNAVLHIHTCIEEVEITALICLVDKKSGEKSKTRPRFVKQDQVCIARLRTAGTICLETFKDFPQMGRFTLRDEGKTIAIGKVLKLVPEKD
Chain of GSPT1 (Q96SW2 whole entry): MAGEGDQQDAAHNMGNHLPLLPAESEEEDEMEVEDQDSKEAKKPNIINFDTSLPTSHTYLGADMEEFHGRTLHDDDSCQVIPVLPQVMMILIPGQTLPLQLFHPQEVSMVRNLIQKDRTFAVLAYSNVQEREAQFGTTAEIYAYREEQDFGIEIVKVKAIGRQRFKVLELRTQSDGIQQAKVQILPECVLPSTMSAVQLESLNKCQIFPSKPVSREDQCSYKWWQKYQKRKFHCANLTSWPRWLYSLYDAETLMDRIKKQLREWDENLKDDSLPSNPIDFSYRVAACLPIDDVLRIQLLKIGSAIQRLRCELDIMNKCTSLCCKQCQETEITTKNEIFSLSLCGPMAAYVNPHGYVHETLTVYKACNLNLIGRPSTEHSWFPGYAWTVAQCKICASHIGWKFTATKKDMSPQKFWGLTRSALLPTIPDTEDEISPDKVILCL
Chain of GSPT1 (Q16531 whole entry partner): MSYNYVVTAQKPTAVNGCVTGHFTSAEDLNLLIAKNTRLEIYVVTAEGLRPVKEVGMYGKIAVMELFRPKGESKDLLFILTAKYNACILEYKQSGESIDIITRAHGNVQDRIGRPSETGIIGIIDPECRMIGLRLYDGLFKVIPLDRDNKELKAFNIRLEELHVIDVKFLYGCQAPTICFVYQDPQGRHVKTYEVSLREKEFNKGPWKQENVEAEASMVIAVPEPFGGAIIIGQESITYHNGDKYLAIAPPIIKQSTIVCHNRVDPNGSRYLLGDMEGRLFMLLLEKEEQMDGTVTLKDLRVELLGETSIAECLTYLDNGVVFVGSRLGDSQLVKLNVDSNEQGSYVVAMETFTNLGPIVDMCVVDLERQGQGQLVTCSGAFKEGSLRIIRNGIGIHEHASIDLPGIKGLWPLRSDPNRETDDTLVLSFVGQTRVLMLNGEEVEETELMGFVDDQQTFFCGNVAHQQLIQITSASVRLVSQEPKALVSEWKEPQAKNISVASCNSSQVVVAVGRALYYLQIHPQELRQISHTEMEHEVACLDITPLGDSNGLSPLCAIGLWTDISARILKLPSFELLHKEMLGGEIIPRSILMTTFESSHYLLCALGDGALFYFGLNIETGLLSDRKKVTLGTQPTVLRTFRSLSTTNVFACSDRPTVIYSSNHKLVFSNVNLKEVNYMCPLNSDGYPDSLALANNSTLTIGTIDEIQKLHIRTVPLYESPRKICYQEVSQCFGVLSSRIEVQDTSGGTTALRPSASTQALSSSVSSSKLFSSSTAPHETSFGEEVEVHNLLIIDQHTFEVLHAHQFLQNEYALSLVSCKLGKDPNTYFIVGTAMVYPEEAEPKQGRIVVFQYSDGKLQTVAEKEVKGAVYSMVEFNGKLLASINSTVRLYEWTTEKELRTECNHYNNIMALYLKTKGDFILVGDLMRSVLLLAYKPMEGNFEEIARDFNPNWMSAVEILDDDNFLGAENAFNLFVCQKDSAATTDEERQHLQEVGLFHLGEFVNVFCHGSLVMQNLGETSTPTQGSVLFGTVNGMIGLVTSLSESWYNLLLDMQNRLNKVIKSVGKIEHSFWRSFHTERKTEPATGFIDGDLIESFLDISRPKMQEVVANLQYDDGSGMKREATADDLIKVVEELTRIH

SMILES	IC50 (MOLM-13 cells; [1])	IC50 (MOLM-13 cells; [2])	IC50 (MV4;11 cells; [3])	IC50 (MV4;11 cells; [4])	also measured
Cc1nc(-c2cn([C@H]3C[C@H](CNc4ccc5c(c4)CN(C4CCC(=O)NC4=O)C5=O)C3)nc2C2CC2)ccc1F (stereo partly drawn) [GS-731, 3-(5-(((Trans-3-(3-cyclopropyl-4-(5-fluoro-6-methylpyridin-2-yl)-1H-pyrazol-1-yl)cyclobutyl)methyl)amino)-1-oxoisoindolin-2-yl)piperidine-2,6-dione]	10 to 100 nM	< 10 nM	< 10 nM	< 10 nM	small molecule-mediated targeted degradation of GSPT1 (GSPT1): targeted degradation of GSPT1
Cn1ncc2ccc(-c3cn([C@H]4C[C@H](CNc5ccc6c(c5)C(=O)N(C5CCC(=O)NC5=O)C6=O)C4)nc3C3CC3)nc21 (stereo partly drawn) [GS-729, 5-(((Trans-3-(3-cyclopropyl-4-(1-methyl-1H-pyrazolo[3,4-b]pyridin-6-yl)-1H-pyrazol-1-yl)cyclobutyl)methyl)amino)-2-(2,6-dioxopiperidin-3-yl)isoindoline-1,3-dione]	10 to 100 nM	< 10 nM	10 to 100 nM	< 10 nM	small molecule-mediated targeted degradation of GSPT1 (GSPT1): targeted degradation of GSPT1
Cn1ccnc1-c1cn([C@H]2C[C@H](CNc3ccc4c(c3)C(=O)N(C3CCC(=O)NC3=O)C4=O)C2)nc1C1CC1 (stereo partly drawn) [GS-687, 5-(((Trans-3-(3-cyclopropyl-4-(1-methyl-1H-imidazol-2-yl)-1H-pyrazol-1-yl)cyclobutyl)methyl)amino)-2-(2,6-dioxopiperidin-3-yl)isoindoline-1,3-dione]	> 1000 nM	100 to 1000 nM	> 1000 nM	100 to 1000 nM	–
Cc1nc(-c2cn(C3CC(O)(CNc4ccc5c(c4)C(=O)N(C4CCC(=O)NC4=O)C5=O)C3)nc2C2CC2)ccc1F (stereo not drawn) [GS-760, 5-(((trans-3-(3-cyclopropyl-4-(5-fluoro-6-methylpyridin-2-yl)-1H-pyrazol-1-yl)-1-hydroxycyclobutyl)methyl)amino)-2-(2,6-dioxopiperidin-3-yl)isoindoline-1,3-dione]	–	–	–	–	IC50 (MOLM-13 cells; MOLM-13 cells, compound alone, three days, read-out: MOLM-13 IC50): > 1000 nM; IC50 (MV4;11 cells; MV4;11 cells, compound alone, three days, 11 IC50): > 1000 nM
Cn1cnc2cnc(-c3cn([C@H]4C[C@H](CNc5ccc6c(c5)C(=O)N(C5CCC(=O)NC5=O)C6=O)C4)nc3C3CC3)cc21 (stereo partly drawn) [GS-658, 5-(((Trans-3-(3-cyclopropyl-4-(1-methyl-1H-imidazo[4,5-c]pyridin-6-yl)-1H-pyrazol-1-yl)cyclobutyl)methyl)amino)-2-(2,6-dioxopiperidin-3-yl)isoindoline-1,3-dione]	> 1000 nM	100 to 1000 nM	> 1000 nM	100 to 1000 nM	–
Nc1cnc2c(c1)c(C1CC1)nn2[C@H]1C[C@H](CNc2ccc3c(c2)C(=O)N(C2CCC(=O)NC2=O)C3=O)C1 (stereo partly drawn) [GS-756, 5-(((Trans-3-(5-amino-3-cyclopropyl-1H-pyrazolo[3,4-b]pyridin-1-yl)cyclobutyl)methyl)amino)-2-(2,6-dioxopiperidin-3-yl)isoindoline-1,3-dione]	> 1000 nM	–	> 1000 nM	–	–
O=C1CCC(N2C(=O)c3ccc(NC[C@H]4C[C@H](n5cc(-n6ncc7cccnc76)c(C6CC6)n5)C4)cc3C2=O)C(=O)N1 (stereo partly drawn) [GS-777, 5-(((Trans-3-(3-cyclopropyl-4-(1H-pyrazolo[3,4-b]pyridin-1-yl)-1H-pyrazol-1-yl)cyclobutyl)methyl)amino)-2-(2,6-dioxopiperidin-3-yl)isoindoline-1,3-dione]	10 to 100 nM	< 10 nM	< 10 nM	< 10 nM	–
O=C1CCC(N2C(=O)c3ccc(NCCC[C@H]4C[C@H](n5cc(-c6nccc7c6NCCC7)c(C6CC6)n5)C4)cc3C2=O)C(=O)N1 (stereo partly drawn) [GS-685, 5-((3-(Trans-3-(3-cyclopropyl-4-(1,2,3,4-tetrahydro-1,7-naphthyridin-8-yl)-1H-pyrazol-1-yl)cyclobutyl)propyl)amino)-2-(2,6-dioxopiperidin-3-yl)isoindoline-1,3-dione]	> 1000 nM	100 to 1000 nM	> 1000 nM	100 to 1000 nM	–
O=C1CCC(N2C(=O)c3ccc(NCCC4CC5(C4)CC(n4nc(C6CC6)c6ccccc64)C5)cc3C2=O)C(=O)N1 (stereo not shown) [GS-783, 5-((2-(6-(3-Cyclopropyl-1H-indazol-1-yl)spiro[3.3]heptan-2-yl)ethyl)amino)-2-(2,6-dioxopiperidin-3-yl)isoindoline-1,3-dione]	10 to 100 nM	10 to 100 nM	10 to 100 nM	10 to 100 nM	–
Cc1cc(F)cnc1-c1cn([C@H]2C[C@H](CNc3ccc4c(c3)CN(C3CCC(=O)NC3=O)C4=O)C2)nc1C1CC1 (stereo partly drawn) [GS-676, 3-(5-(((Trans-3-(3-cyclopropyl-4-(5-fluoro-3-methylpyridin-2-yl)-1H-pyrazol-1-yl)cyclobutyl)methyl)amino)-1-oxoisoindolin-2-yl)piperidine-2,6-dione]	< 10 nM	< 10 nM	< 10 nM	< 10 nM	–
Cc1nc(-c2cn([C@H]3C[C@H](COc4ccc5c(c4)CN(C4CCC(=O)NC4=O)C5=O)C3)nc2C2CC2)ccc1F (stereo partly drawn) [GS-787, 3-(5-((Trans-3-(3-cyclopropyl-4-(5-fluoro-6-methylpyridin-2-yl)-1H-pyrazol-1-yl)cyclobutyl)methoxy)-1-oxoisoindolin-2-yl)piperidine-2,6-dione]	> 1000 nM	–	> 1000 nM	–	–
Cc1cc(F)cnc1-c1cn([C@H]2C[C@H](CNc3ccc4c(c3)C(=O)N(C3CCC(=O)NC3=O)C4=O)C2)nc1C(F)F (stereo partly drawn) [GS-719, 5-(((Trans-3-(3-(Difluoromethyl)-4-(5-fluoro-3-methylpyridin-2-yl)-1H-pyrazol-1-yl)cyclobutyl)methyl)amino)-2-(2,6-dioxopiperidin-3-yl)isoindoline-1,3-dione]	10 to 100 nM	< 10 nM	10 to 100 nM	< 10 nM	–
O=C1CCC(N2C(=O)c3ccc(NC[C@H]4C[C@H](n5cc(-c6ccc7c(n6)C(O)CC7)c(C6CC6)n5)C4)cc3C2=O)C(=O)N1 (stereo partly drawn) [GS-780, 5-(((Trans-3-(3-cyclopropyl-4-(7-hydroxy-6,7-dihydro-5H-cyclopenta[b]pyridin-2-yl)-1H-pyrazol-1-yl)cyclobutyl)methyl)amino)-2-(2,6-dioxopiperidin-3-yl)isoindoline-1,3-dione]	10 to 100 nM	< 10 nM	10 to 100 nM	< 10 nM	–
Cn1ncc2cnc(-c3cn([C@H]4C[C@H](CCc5ccc6c(c5)CN([C@@H]5CCC(=O)NC5=O)C6=O)C4)nc3C3CC3)cc21 [GS-766, 3-(5-(2-(Trans-3-(3-cyclopropyl-4-(1-methyl-1H-pyrazolo[4,3-c]pyridin-6-yl)-1H-pyrazol-1-yl)cyclobutyl)ethyl)-1-oxoisoindolin-2-yl)piperidine-2,6-dione]	< 10 nM	< 10 nM	< 10 nM	< 10 nM	–
O=C1CCC(N2C(=O)c3ccc(NC[C@H]4C[C@H](n5cc(-c6cccc(N7CCC7)c6)c(C6CC6)n5)C4)cc3C2=O)C(=O)N1 (stereo partly drawn) [GS-653, 5-(((Trans-3-(4-(3-(azetidin-1-yl)phenyl)-3-cyclopropyl-1H-pyrazol-1-yl)cyclobutyl)methyl)amino)-2-(2,6-dioxopiperidin-3-yl)isoindoline-1,3-dione]	–	–	–	–	IC50 (MOLM-13 cells; Homo sapiens, MOLM-13, 72 h, read-out: MOLM-13 IC50 (nM)): > 1000 nM; IC50 (MOLM-13 cells; read-out: MOLM-13 IC50 (nM) + 10 nM Gil, MOLM-13 cells, with gilteritinib, three days): 10 to 100 nM; IC50 (MV4;11 cells; Homo sapiens, MV4-11, 72 h, 11 IC50 (nM)): 100 to 1000 nM; IC50 (MV4;11 cells; 11 IC50 (nM) + 10 nM Gil, MV4;11 cells, with 10 nM gilteritinib, three days): 10 to 100 nM
O=C1CCC(N2C(=O)c3ccc(NC[C@H]4C[C@H](n5cc(-c6cnc7cc(N8CC(O)C8)ccc7n6)c(C6CC6)n5)C4)cc3C2=O)C(=O)N1 (stereo partly drawn) [GS-712, 5-(((Trans-3-(3-cyclopropyl-4-(6-(3-hydroxyazetidin-1-yl)quinoxalin-2-yl)-1H-pyrazol-1-yl)cyclobutyl)methyl)amino)-2-(2,6-dioxopiperidin-3-yl)isoindoline-1,3-dione]	< 10 nM	< 10 nM	< 10 nM	< 10 nM	–
Cn1ccc2c(-c3cn([C@H]4C[C@H](CNc5ccc6c(c5)C(=O)N(C5CCC(=O)NC5=O)C6=O)C4)nc3C3CC3)ncc(F)c21 (stereo partly drawn) [GS-768, 5-(((Trans-3-(3-cyclopropyl-4-(7-fluoro-1-methyl-1H-pyrrolo[3,2-c]pyridin-4-yl)-1H-pyrazol-1-yl)cyclobutyl)methyl)amino)-2-(2,6-dioxopiperidin-3-yl)isoindoline-1,3-dione]	< 10 nM	< 10 nM	< 10 nM	< 10 nM	–
